Values of other authors as cited in patent publication US20240050950A1, “GRADIENT-BASED MICROFLUIDIC CIRCUIT, DEVICE, AND METHOD FOR PERFORMING AN ASSAY” (priority 2020, published 2024).
Counter-ions that a name gives are not always drawn. Like-named read-outs stand apart in the source and are kept apart here.

Settings: cited from earlier work
[1] = Table 1, antimicrobial agents/drugs
[2] = Table 3, antifungal drugs and other molecules

Row | Compound | Molar volume (Table 2, anticancer drugs) [cm^3] | Molar volume [1] [cm^3] | also measured
1 | CN(C)C(=O)c1cc2cnc(Nc3ccc(N4CCNCC4)cn3)nc2n1C1CCCC1 [Kisqali (Ribociclib), Ribociclib] | 635.1 ± 5.0 |  | Molar volume (Table 2, anticancer drugs, listed as Ribociclib): 311.4 ± 7.0 cm^3
2 | OC[C@H]1NC[C@@H](O)[C@@H](O)[C@@H]1O [1-Deoxymannojirimycin] |  | 112.0 ± 3.0 | 
3 | CO/C1=C\C(C)=C\[C@@H](C)[C@@H](O)[C@@H](C)C/C(C)=C/C=C/[C@H](OC)[C@@H]([C@@H](C)[C@@H](O)[C@H](C)[C@@]2(O)C[C@@H](O)[C@H](C)[C@@H](C(C)C)O2)OC1=O [Bafilomycin A1 (4730700), Bafilomycin A1] |  | 552.3 ± 5.0 | 
4 | O=C(C1CCCCC1)N1CC(=O)N2CCc3ccccc3C2C1 (stereo not shown) [Praziquantel] |  | 254.2 ± 5.0 | 
5 | c1cc(CN2CCCNCCNCCCNCC2)ccc1CN1CCCNCCNCCCNCC1 [Mozobil (Plerixafor), Plerixafor] | 522.2 ± 3.0 |  | 
6 | CO[C@@H]1[C@H](OC(=O)/C=C/C=C/C=C/C=C/C(=O)O)CC[C@]2(CO2)[C@H]1[C@@]1(C)O[C@@H]1CC=C(C)C [Fumagillin] |  | 383.2 ± 5.0 | 
7 | CC(=O)OCC1=C(C(=O)O)N2C(=O)[C@@H](NC(=O)Cc3cccs3)[C@H]2SC1 [Cephalothin (Cefalotin), Cephalothin] |  | 252.7 ± 5.0 | 
8 | Polymyxin B |  | 941.8 ± 5.0 | 
9 | COc1cccc2c1C(=O)c1c(O)c3c(c(O)c1C2=O)C[C@@](O)(C(=O)CO)C[C@@H]3O[C@H]1C[C@H](N)[C@H](O)[C@H](C)O1 [Doxorubicin] | 336.6 ± 5.0 | 336.6 ± 5.0 | 
10 | CNC(=O)c1cc(Oc2ccc(NC(=O)Nc3ccc(Cl)c(C(F)(F)F)c3)cc2)ccn1 [Nexavar (Sorafenib Tosylate), Sorafenib Tosylate] | 319.4 ± 3.0 |  | 
11 | CC(=O)O[C@]1(C(C)=O)CC[C@H]2[C@@H]3C=C(C)C4=CC(=O)CC[C@]4(C)[C@H]3CC[C@@]21C [Megestrol Acetate] | 333.3 ± 5.0 |  | 
12 | CC[C@H](C)C[C@H](C)CCCCCCCCC(=O)N[C@H]1C[C@@H](O)[C@@H](NCCN)NC(=O)[C@@H]2[C@@H](O)CCN2C(=O)[C@H]([C@H](O)CCN)NC(=O)[C@H]([C@H](O)[C@@H](O)c2ccc(O)cc2)NC(=O)[C@@H]2C[C@@H](O)CN2C(=O)[C@H]([C@@H](C)O)NC1=O [Caspofungin] |  |  | Molar volume [2]: 803.3 cm^3
13 | C[C@@H]1C[C@H]2CC[C@H](O2)[C@H](C)C(=O)O[C@@H](C)C[C@@H]2CC[C@@H](O2)[C@@H](C)C(=O)O[C@H](C)C[C@H]2CC[C@H](O2)[C@H](C)C(=O)O[C@@H](C)C[C@@H]2CC[C@@H](O2)[C@@H](C)C(=O)O1 [Nonactin (Ammonium ionophore), Nonactin] |  | 707.9 ± 3.0 | 
14 | NC(=O)c1cc[n+](CC2=C(C(=O)O)N3C(=O)[C@@H](NC(=O)[C@@H](c4ccccc4)S(=O)(=O)[O-])[C@H]3SC2)cc1 [Cefsulodin (Ulfaret), Cefsulodin] |  | 316.5 ± 7.0 | 
15 | C=C1C[C@@H]2CC[C@@]34C[C@H]5O[C@H]6[C@@H](O3)[C@H]3O[C@H](CC[C@@H]3O[C@H]6[C@H]5O4)CC(=O)C[C@@H]3[C@@H](OC)[C@@H](C[C@H](O)CN)O[C@H]3C[C@H]3O[C@@H](CC[C@@H]1O2)C[C@@H](C)C3=C [Eribulin Mesylate] | 563.2 ± 5.0 |  | 
16 | CO[C@@H]1C[C@@H](C[C@H]2CC[C@H](C)[C@H]([C@@H](C)C(=O)O)O2)O[C@]2(O[C@](C)([C@H]3CC[C@@](C)([C@@H]4O[C@@H]([C@H]5O[C@@](O)(CO)[C@H](C)C[C@@H]5C)C[C@@H]4C)O3)C[C@H]2C)[C@@H]1C [Nigericin] |  | 607.9 ± 5.0 | 
17 | CN(C)c1ccc(C(=C2C=CC(=[N+](C)C)C=C2)c2ccc(N(C)C)cc2)cc1 [Gentian Violet] |  |  | Molar volume [2]: 340.9 ± 5.0 cm^3
18 | CC[C@@]1(O)C(=O)OCc2c1cc1n(c2=O)Cc2cc3c(CN(C)C)c(O)ccc3nc2-1 [Hycamtin (Topotecan Hydrochloride), Topotecan Hydrochloride] | 281.3 ± 5.0 |  | 

Row | Compound | Molar volume (Table 2, anticancer drugs) [cm^3] | Molar volume [1] [cm^3] | also measured
19 | COC[C@@H](C[C@H]1O[C@@](O)([C@H](O)[C@@H]2C[C@H](OC)[C@@H](O)CC/C=C(C)/C=C/[C@@H](O[C@@H]3O[C@@H](C)[C@H](OC)[C@@H](O)[C@@H]3O)[C@H](C)/C=C(C)/C=C(C)/C=C(\C)C(=O)O2)[C@H](C)[C@@H](O)[C@H]1C)OC1C[C@](C)(O)[C@@H](O[C@H]2C[C@@H](OC)[C@H](O)[C@@H](C)O2)[C@H](C)O1 (stereo partly shown) [Apoptolidin (FU 40A), Apoptolidin] |  | 898.5 ± 5.0 | 
20 | [H]/N=C(\N/C(=N/[H])NCCCCCCNC(=N)NC(=N)Nc1ccc(Cl)cc1)Nc1ccc(Cl)cc1 [Chlorhexidine] |  | 363.3 ± 7.0 | 
21 | CCn1cc(C(=O)O)c(=O)c2cc3c(cc21)OCO3 [Oxolinic acid] |  | 176.1 ± 3.0 | 
22 | COc1cc(/C=N/O)nc(-c2ccccn2)c1 [Caerulomycin A] |  | 185.8 ± 7.0 | 
23 | Ivermectin Bla |  | 708.3 ± 5.0 | 
24 | O=C(Nc1ccc([N+](=O)[O-])cc1Cl)c1cc(Cl)ccc1O [Niclosamide] |  | 202.4 ± 3.0 | 
25 | CC(C)C[C@@H](N)[C@H](O)C(=O)N[C@H](C(=O)N[C@H](C(=O)N[C@@H](CC(=O)O)C(=O)O)C(C)C)C(C)C [Amastatin] |  | 386.4 ± 3.0 | 
26 | CO[C@H]1C(=O)[C@]2(C)[C@@H](OC)C[C@H]3OC[C@@]3(OC(C)=O)[C@H]2[C@H](OC(=O)c2ccccc2)[C@]2(O)C[C@H](OC(=O)[C@H](O)[C@@H](NC(=O)OC(C)(C)C)c3ccccc3)C(C)=C1C2(C)C [Cabazitaxel] | 635.1 ± 5.0 |  | 
27 | COc1cccc2c1C(=O)c1c(O)c3c(c(O)c1C2=O)C[C@@](O)(C(C)=O)C[C@@H]3O[C@H]1C[C@H](N)[C@H](O)[C@H](C)O1 [Daunorubicin (Daunomycin), Daunorubicin] |  | 339.4 ± 5.0 | 
28 | Kirromycin [Kirromycin (mocimycin)] |  | 622.6 ± 3.0 | 
29 | COC(=O)Nc1nc2cc(C(=O)c3ccc(F)cc3)ccc2[nH]1 [Flubendazol (Flumoxanal), Flubendazol] |  | 216.8 ± 3.0 | 
30 | Cc1c(C(=O)Nc2ccc(N3C[C@@H](C)O[C@@H](C)C3)nc2)cccc1-c1ccc(OC(F)(F)F)cc1 [Odomzo (Sonidegib), Sonidegib] | 386.7 ± 3.0 |  | 
31 | C[C@H]1O[C@H](O[C@H]2[C@H](O)[C@@H](O)[C@@H](O)[C@H](O)[C@@H]2O)[C@@H](N)C[C@@H]1NC(=N)C(=O)O [Kasugamycin] |  |  | Molar volume [2]: 192.2 ± 7.0 cm^3
32 | CC1(C)NC(=O)N(c2ccc([N+](=O)[O-])c(C(F)(F)F)c2)C1=O [Nilandron (Nilutamide), Nilutamide] | 216.7 ± 3.0 |  | 
33 | C[C@H](CCC(=O)O)C[C@H](C)C[C@H](C)C(=O)/C=C(\O)[C@H](C)C[C@H](C)C/C=C/[C@@H](C)[C@@H](O)[C@@H](C)[C@@H](O)C[C@@H]1CC[C@@](C)([C@H]2CC[C@@](C)([C@@H](C)O)O2)O1 [Ionomycin] |  | 661.0 ± 3.0 | 
34 | Nc1nc(Cl)nc2c1ncn2[C@H]1C[C@H](O)[C@@H](CO)O1 [Cladribine] | 140.1 ± 7.0 |  | 
35 | O=C1c2cccc3c2[C@H](CCC3)CN1[C@@H]1CN2CCC1CC2 [Aloxi (Palonosetron Hydrochloride), Palonosetron Hydrochloride] | 238.6 ± 5.0 |  | 
